Tests used:
[1] = Antiproliferative activity against SMARCA4-deficient human NCI-H1568 cells assessed as cell growth inhibition measured after 7 days by WST-8 assay; type: functional; conditions: NCI-H1568, 168 h, time 7 day
[2] = target: T1, von Hippel-Lindau disease tumor suppressor/SWI/SNF-related matrix-associated actin-dependent regulator of chromatin subfamily A member 2 (Homo sapiens, UniProt P51531+P40337); assay: PROTAC activity at VHL/SMARCA2 in human SW1573 cells assessed as induction of SMARCA2 degradation by measuring maximal efficacy incubated for 20 hrs by Western blotting analysis relative to control; type: cell-based
Target sequence in this assay (P40337 whole entry, looked up): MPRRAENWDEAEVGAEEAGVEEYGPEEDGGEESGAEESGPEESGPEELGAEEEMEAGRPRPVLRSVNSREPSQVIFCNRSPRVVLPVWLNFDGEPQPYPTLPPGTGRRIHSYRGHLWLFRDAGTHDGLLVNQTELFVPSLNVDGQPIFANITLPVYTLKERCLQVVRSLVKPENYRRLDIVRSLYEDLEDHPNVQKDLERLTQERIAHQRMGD
Target sequence in this assay (P51531 whole entry, looked up): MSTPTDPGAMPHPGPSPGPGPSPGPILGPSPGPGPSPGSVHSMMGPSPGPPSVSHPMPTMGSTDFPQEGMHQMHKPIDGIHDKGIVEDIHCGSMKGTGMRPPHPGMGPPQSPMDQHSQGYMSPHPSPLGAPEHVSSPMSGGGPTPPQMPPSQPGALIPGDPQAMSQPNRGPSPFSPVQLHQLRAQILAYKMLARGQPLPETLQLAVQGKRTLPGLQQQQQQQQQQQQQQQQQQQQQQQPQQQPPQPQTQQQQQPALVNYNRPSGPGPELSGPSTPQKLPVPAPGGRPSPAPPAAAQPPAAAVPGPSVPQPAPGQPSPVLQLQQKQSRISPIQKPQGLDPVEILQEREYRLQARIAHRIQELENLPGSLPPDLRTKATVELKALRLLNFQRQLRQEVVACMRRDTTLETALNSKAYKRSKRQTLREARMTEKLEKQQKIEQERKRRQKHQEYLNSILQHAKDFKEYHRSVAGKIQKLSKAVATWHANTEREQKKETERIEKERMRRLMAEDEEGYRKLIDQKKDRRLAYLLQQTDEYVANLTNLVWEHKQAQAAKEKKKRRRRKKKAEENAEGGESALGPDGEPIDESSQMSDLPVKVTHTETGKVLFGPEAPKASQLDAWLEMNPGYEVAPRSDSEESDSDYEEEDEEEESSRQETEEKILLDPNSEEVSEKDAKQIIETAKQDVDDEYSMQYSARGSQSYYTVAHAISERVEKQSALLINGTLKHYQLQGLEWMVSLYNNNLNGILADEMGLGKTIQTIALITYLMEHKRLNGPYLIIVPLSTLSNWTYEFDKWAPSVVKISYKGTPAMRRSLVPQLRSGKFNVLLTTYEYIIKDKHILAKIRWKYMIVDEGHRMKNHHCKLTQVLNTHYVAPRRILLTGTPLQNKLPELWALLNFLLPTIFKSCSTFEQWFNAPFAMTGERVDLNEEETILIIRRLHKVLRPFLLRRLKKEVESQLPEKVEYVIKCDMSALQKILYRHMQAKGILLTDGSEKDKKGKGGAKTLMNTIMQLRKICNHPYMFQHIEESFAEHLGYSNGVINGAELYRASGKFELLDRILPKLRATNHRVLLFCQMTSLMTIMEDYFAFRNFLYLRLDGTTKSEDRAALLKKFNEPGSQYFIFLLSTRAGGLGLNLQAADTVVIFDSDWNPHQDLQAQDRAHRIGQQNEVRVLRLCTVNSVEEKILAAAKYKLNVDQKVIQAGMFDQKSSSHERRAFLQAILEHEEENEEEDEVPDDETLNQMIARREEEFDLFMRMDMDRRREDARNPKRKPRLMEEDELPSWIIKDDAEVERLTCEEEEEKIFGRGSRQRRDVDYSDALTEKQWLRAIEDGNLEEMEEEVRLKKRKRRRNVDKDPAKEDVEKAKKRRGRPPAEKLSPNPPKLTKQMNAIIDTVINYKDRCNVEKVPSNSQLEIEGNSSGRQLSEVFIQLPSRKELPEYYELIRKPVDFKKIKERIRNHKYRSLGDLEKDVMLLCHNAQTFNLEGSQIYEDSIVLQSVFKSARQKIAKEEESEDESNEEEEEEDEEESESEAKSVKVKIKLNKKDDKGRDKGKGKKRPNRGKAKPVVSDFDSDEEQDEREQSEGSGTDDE

[3] = test system: A549; assay: Antiproliferative activity against SMARCA4-deficient human A549 cells assessed as cell growth inhibition measured after 7 days by WST-8 assay; type: functional; conditions: A549, 168 h, time 7 day
[4] = target: T1, von Hippel-Lindau disease tumor suppressor/SWI/SNF-related matrix-associated actin-dependent regulator of chromatin subfamily A member 2; assay: PROTAC activity at VHL/C-terminal HiBiT fused SMARCA2 in human HeLa cells assessed as induction of SMARCA2 degradation by measuring maximal efficacy incubated for 24 hrs by Nano-Glo HiBiT analysis relative to control; type: cell-based
Target sequence in this assay (P40337 whole entry, looked up): as the sequence (P40337 whole entry, looked up) above
Target sequence in this assay (P51531 whole entry, looked up): as the sequence (P51531 whole entry, looked up) above

[5] = test system: NCI-H1693; assay: Antiproliferative activity against SMARCA4-deficient human NCI-H1693 cells assessed as cell growth inhibition by measuring maximal efficacy measured after 7 days by WST-8 assay relative to control; type: functional; conditions: time 7 day
[6] = test system: NCI-H1944; assay: Antiproliferative activity against SMARCA4-deficient human NCI-H1944 cells assessed as cell growth inhibition measured after 7 days by WST-8 assay; type: functional; conditions: NCI-H1944, 168 h, time 7 day
[7] = target: T2, von Hippel-Lindau disease tumor suppressor/SWI/SNF-related matrix-associated actin-dependent regulator of chromatin subfamily A member 4 (Homo sapiens, UniProt P51532+P40337); assay: PROTAC activity at VHL/C-terminal HiBiT fused SMARCA4 in human HeLa cells assessed as induction of SMARCA4 degradation incubated for 24 hrs by Nano-Glo HiBiT analysis; type: cell-based
[8] = test system: SK-MEL-28; assay: Antiproliferative activity against human SK-MEL-28 cells expressing wild-type SMARCA2 assessed as cell growth inhibition by measuring maximal efficacy measured after 7 days by WST-8 assay relative to control; type: functional; conditions: time 7 day
[9] = target: T2, von Hippel-Lindau disease tumor suppressor/SWI/SNF-related matrix-associated actin-dependent regulator of chromatin subfamily A member 4; assay: PROTAC activity at VHL/C-terminal HiBiT fused SMARCA4 in human HeLa cells assessed as induction of SMARCA4 degradation by measuring maximal efficacy incubated for 24 hrs by Nano-Glo HiBiT analysis relative to control; type: cell-based
Target sequence in this assay (P40337 whole entry, looked up, the tested form may be a part): as the sequence (P40337 whole entry, looked up) above
Target sequence in this assay (P51532 whole entry, looked up, the tested form may be a part): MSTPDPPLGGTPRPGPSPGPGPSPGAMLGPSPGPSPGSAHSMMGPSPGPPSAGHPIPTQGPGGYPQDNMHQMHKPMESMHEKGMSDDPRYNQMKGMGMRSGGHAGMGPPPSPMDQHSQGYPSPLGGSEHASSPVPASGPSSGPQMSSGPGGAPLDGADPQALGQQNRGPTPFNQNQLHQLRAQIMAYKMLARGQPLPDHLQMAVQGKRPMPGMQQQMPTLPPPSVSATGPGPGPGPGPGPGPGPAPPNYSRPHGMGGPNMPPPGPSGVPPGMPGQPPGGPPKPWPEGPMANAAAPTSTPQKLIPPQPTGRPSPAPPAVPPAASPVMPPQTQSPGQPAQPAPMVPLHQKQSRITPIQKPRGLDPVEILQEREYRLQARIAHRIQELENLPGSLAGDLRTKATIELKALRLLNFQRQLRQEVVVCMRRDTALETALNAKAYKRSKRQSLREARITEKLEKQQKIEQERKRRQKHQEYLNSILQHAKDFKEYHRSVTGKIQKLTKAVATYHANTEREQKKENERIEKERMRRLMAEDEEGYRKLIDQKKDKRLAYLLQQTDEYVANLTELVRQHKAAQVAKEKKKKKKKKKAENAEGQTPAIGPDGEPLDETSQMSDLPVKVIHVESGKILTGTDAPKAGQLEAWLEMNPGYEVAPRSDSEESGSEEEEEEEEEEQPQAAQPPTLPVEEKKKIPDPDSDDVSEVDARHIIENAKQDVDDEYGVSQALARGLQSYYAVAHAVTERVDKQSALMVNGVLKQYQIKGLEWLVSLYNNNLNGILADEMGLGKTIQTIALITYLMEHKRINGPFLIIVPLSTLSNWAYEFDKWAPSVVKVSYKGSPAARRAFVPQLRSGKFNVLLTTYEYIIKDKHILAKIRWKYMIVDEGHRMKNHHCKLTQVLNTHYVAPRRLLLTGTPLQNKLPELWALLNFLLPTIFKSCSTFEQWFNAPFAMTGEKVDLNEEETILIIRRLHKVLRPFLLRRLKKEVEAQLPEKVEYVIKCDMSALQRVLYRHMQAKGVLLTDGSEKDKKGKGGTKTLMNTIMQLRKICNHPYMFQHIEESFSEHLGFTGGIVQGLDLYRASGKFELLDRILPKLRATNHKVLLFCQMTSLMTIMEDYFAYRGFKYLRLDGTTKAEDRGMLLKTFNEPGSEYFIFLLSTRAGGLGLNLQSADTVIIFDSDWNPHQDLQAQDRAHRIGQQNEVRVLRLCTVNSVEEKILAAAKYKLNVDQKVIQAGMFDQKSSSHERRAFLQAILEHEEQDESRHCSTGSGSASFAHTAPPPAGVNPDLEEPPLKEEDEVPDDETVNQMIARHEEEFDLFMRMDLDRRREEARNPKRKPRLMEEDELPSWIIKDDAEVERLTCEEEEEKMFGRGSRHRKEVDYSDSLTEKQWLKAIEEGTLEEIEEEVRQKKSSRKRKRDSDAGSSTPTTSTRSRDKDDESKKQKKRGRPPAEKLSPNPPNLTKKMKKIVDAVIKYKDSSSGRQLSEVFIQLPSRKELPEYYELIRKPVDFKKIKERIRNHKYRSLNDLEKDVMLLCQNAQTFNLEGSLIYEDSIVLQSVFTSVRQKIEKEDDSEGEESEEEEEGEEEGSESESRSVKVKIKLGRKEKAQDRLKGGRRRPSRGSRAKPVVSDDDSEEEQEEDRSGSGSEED

[10] = target: T1, von Hippel-Lindau disease tumor suppressor/SWI/SNF-related matrix-associated actin-dependent regulator of chromatin subfamily A member 2; assay: PROTAC activity at VHL/C-terminal HiBiT fused SMARCA2 in human HeLa cells assessed as induction of SMARCA2 degradation at 0.000001 to 1 uM by Nano-Glo HiBiT analysis; type: cell-based; conditions: dose lower 1e-06 µM, dose upper 1.0 µM, time 6-48 hrs, TDE = time-dependent effect
Target sequence in this assay (P40337 whole entry, looked up): as the sequence (P40337 whole entry, looked up) above
Target sequence in this assay (P51531 whole entry, looked up): as the sequence (P51531 whole entry, looked up) above

[11] = test system: NCI-H838; assay: Antiproliferative activity against SMARCA4-deficient human NCI-H838 cells assessed as cell growth inhibition by measuring maximal efficacy measured after 7 days by WST-8 assay relative to control; type: functional; conditions: time 7 day
[12] = test system: NCI-H647; assay: Antiproliferative activity against human NCI-H647 cells expressing wild-type SMARCA2 assessed as cell growth inhibition by measuring maximal efficacy measured after 7 days by WST-8 assay relative to control; type: functional; conditions: time 7 day
[13] = target: T1, von Hippel-Lindau disease tumor suppressor/SWI/SNF-related matrix-associated actin-dependent regulator of chromatin subfamily A member 2; assay: PROTAC activity at VHL/C-terminal HiBiT fused SMARCA2 in human HeLa cells assessed as induction of SMARCA2 degradation incubated for 24 hrs by Nano-Glo HiBiT analysis; type: cell-based
[14] = target: T1, von Hippel-Lindau disease tumor suppressor/SWI/SNF-related matrix-associated actin-dependent regulator of chromatin subfamily A member 2; assay: PROTAC activity at VHL/SMARCA2 in human SW1573 cells assessed as induction of SMARCA2 degradation incubated for 20 hrs by Western blotting analysis; type: cell-based
[15] = test system: SK-MEL-5; assay: Antiproliferative activity against SMARCA4-deficient human SK-MEL-5 cells assessed as cell growth inhibition by measuring maximal efficacy measured after 7 days by WST-8 assay relative to control; type: functional; conditions: time 7 day
[16] = test system: NCI-H1793; assay: Antiproliferative activity against SMARCA4-deficient human NCI-H1793 cells assessed as cell growth inhibition by measuring maximal efficacy measured after 7 days by WST-8 assay relative to control; type: functional; conditions: time 7 day
[17] = target: T1, von Hippel-Lindau disease tumor suppressor/SWI/SNF-related matrix-associated actin-dependent regulator of chromatin subfamily A member 2; assay: PROTAC activity at VHL/C-terminal HiBiT fused SMARCA2 in human HeLa cells assessed as induction of SMARCA2 degradation incubated for 6 to 48 hrs by Nano-Glo HiBiT analysis; type: cell-based; conditions: dose lower 1e-06 µM, dose upper 1.0 µM, time 6-48 hrs
Target sequence in this assay (P40337 whole entry, looked up): as the sequence (P40337 whole entry, looked up) above
Target sequence in this assay (P51531 whole entry, looked up): as the sequence (P51531 whole entry, looked up) above

[18] = test system: NCI-H1975; assay: Antiproliferative activity against human NCI-H1975 cells expressing wild-type SMARCA2 assessed as cell growth inhibition measured after 7 days by WST-8 assay; type: functional; conditions: NCI-H1975, 168 h, time 7 day
[19] = test system: NCI-H1792; assay: Antiproliferative activity against human NCI-H1792 cells expressing wild-type SMARCA2 assessed as cell growth inhibition by measuring maximal efficacy measured after 7 days by WST-8 assay relative to control; type: functional; conditions: time 7 day
[20] = target: T2, von Hippel-Lindau disease tumor suppressor/SWI/SNF-related matrix-associated actin-dependent regulator of chromatin subfamily A member 4; assay: PROTAC activity at VHL/SMARCA4 in human SW1573 cells assessed as induction of […] degradation incubated for 20 hrs by Western blotting analysis; type: cell-based
[21] = test system: NCI-H647; assay: Antiproliferative activity against human NCI-H647 cells expressing wild-type SMARCA2 assessed as cell growth inhibition measured after 7 days by WST-8 assay; type: functional; conditions: NCI-H647, 168 h, time 7 day
[22] = test system: NCI-H838; assay: Antiproliferative activity against SMARCA4-deficient human NCI-H838 cells assessed as cell growth inhibition measured after 7 days by WST-8 assay; type: functional; conditions: NCI-H838, 168 h, time 7 day
[23] = target: T2, von Hippel-Lindau disease tumor suppressor/SWI/SNF-related matrix-associated actin-dependent regulator of chromatin subfamily A member 4; assay: PROTAC activity at VHL/C-terminal HiBiT fused SMARCA4 in human HeLa cells assessed as induction of SMARCA4 degradation incubated for 6 to 48 hrs by Nano-Glo HiBiT analysis; type: cell-based; conditions: dose lower 1e-05 µM, dose upper 1.0 µM, time 6-48 hrs
Target sequence in this assay (P40337 whole entry, looked up, the tested form may be a part): as the sequence (P40337 whole entry, looked up) above
Target sequence in this assay (P51532 whole entry, looked up, the tested form may be a part): as the sequence (P51532 whole entry, looked up, the tested form may be a part) above

[24] = test system: A549; assay: Antiproliferative activity against SMARCA4-deficient human A549 cells assessed as cell growth inhibition by measuring maximal efficacy measured after 7 days by WST-8 assay relative to control; type: functional; conditions: time 7 day
[25] = test system: NCI-H1975; assay: Antiproliferative activity against human NCI-H1975 cells expressing wild-type SMARCA2 assessed as cell growth inhibition by measuring maximal efficacy measured after 7 days by WST-8 assay relative to control; type: functional; conditions: time 7 day
[26] = test system: NCI-H1792; assay: Antiproliferative activity against human NCI-H1792 cells expressing wild-type SMARCA2 assessed as cell growth inhibition measured after 7 days by WST-8 assay; type: functional; conditions: NCI-H1792, 168 h, time 7 day
[27] = target: T2, von Hippel-Lindau disease tumor suppressor/SWI/SNF-related matrix-associated actin-dependent regulator of chromatin subfamily A member 4; assay: PROTAC activity at VHL/C-terminal HiBiT fused SMARCA4 in human HeLa cells assessed as induction of SMARCA4 degradation at 0.00001 to 1 uM by Nano-Glo HiBiT analysis; type: cell-based; conditions: dose lower 1e-05 µM, dose upper 1.0 µM, time 6-48 hrs, TDE = time-dependent effect
Target sequence in this assay (P40337 whole entry, looked up, the tested form may be a part): as the sequence (P40337 whole entry, looked up) above
Target sequence in this assay (P51532 whole entry, looked up, the tested form may be a part): as the sequence (P51532 whole entry, looked up, the tested form may be a part) above

[28] = test system: NCI-H1299; assay: Antiproliferative activity against SMARCA4-deficient human NCI-H1299 cells assessed as cell growth inhibition by measuring maximal efficacy measured after 7 days by WST-8 assay relative to control; type: functional; conditions: time 7 day
[29] = test system: SK-MEL-28; assay: Antiproliferative activity against human SK-MEL-28 cells expressing wild-type SMARCA2 assessed as cell growth inhibition measured after 7 days by WST-8 assay; type: functional; conditions: SK-MEL-28, 168 h, time 7 day
[30] = Antiproliferative activity against SMARCA4-deficient human NCI-H1568 cells assessed as cell growth inhibition by measuring maximal efficacy measured after 7 days by WST-8 assay relative to control; type: functional; conditions: time 7 day
[31] = target: T2, von Hippel-Lindau disease tumor suppressor/SWI/SNF-related matrix-associated actin-dependent regulator of chromatin subfamily A member 4; assay: PROTAC activity at VHL/SMARCA4 in human SW1573 cells assessed as induction of […] degradation by measuring maximal efficacy incubated for 20 hrs by Western blotting analysis relative to control; type: cell-based
Target sequence in this assay (P40337 whole entry, looked up, the tested form may be a part): as the sequence (P40337 whole entry, looked up) above
Target sequence in this assay (P51532 whole entry, looked up, the tested form may be a part): as the sequence (P51532 whole entry, looked up, the tested form may be a part) above

[32] = test system: NCI-H1944; assay: Antiproliferative activity against SMARCA4-deficient human NCI-H1944 cells assessed as cell growth inhibition by measuring maximal efficacy measured after 7 days by WST-8 assay relative to control; type: functional; conditions: time 7 day
[33] = test system: SK-MEL-5; assay: Antiproliferative activity against SMARCA4-deficient human SK-MEL-5 cells assessed as cell growth inhibition measured after 7 days by WST-8 assay; type: functional; conditions: SK-MEL-5, 168 h, time 7 day
[34] = test system: NCI-H1693; assay: Antiproliferative activity against SMARCA4-deficient human NCI-H1693 cells assessed as cell growth inhibition measured after 7 days by WST-8 assay; type: functional; conditions: NCI-H1693, 168 h, time 7 day
[35] = test system: NCI-H1793; assay: Antiproliferative activity against SMARCA4-deficient human NCI-H1793 cells assessed as cell growth inhibition measured after 7 days by WST-8 assay; type: functional; conditions: NCI-H1793, 168 h, time 7 day
[36] = test system: NCI-H1299; assay: Antiproliferative activity against SMARCA4-deficient human NCI-H1299 cells assessed as cell growth inhibition measured after 7 days by WST-8 assay; type: functional; conditions: NCI-H1299, 168 h, time 7 day
[37] = target: T1, von Hippel-Lindau disease tumor suppressor/SWI/SNF-related matrix-associated actin-dependent regulator of chromatin subfamily A member 2; assay: PROTAC activity at VHL/SMARCA2 in human MV4-11 cells assessed as induction of SMARCA2 degradation by measuring maximal efficacy incubated for 18 hrs by Western blotting analysis relative to control; type: cell-based
Target sequence in this assay (P40337 whole entry, looked up): as the sequence (P40337 whole entry, looked up) above
Target sequence in this assay (P51531 whole entry, looked up): as the sequence (P51531 whole entry, looked up) above

[38] = target: T2, von Hippel-Lindau disease tumor suppressor/SWI/SNF-related matrix-associated actin-dependent regulator of chromatin subfamily A member 4; assay: PROTAC activity at VHL/SMARCA4 in human MV4-11 cells assessed as induction of […] degradation by measuring maximal efficacy incubated for 18 hrs by Western blotting analysis relative to control; type: cell-based
Target sequence in this assay (P40337 whole entry, looked up, the tested form may be a part): as the sequence (P40337 whole entry, looked up) above
Target sequence in this assay (P51532 whole entry, looked up, the tested form may be a part): as the sequence (P51532 whole entry, looked up, the tested form may be a part) above

Cc1ncsc1-c1ccc([C@H](C)NC(=O)[C@@H]2C[C@@H](O)CN2C(=O)[C@@H](c2cc(N3CCC(CN4CCC(O[C@H]5C[C@H](Oc6cccc(CN7C8CCC7CN(c7cc(-c9ccccc9O)nnc7N)C8)c6)C5)CC4)CC3)no2)C(C)C)cc1
GI50 [1]: 0.3 nM | Emax [2]: 96% | GI50 [3]: 3.3 nM | Emax [4]: 96% | Imax [5]: 82% | GI50 [6]: 0.9 nM | DC50 [7]: 2 nM | Imax [8]: 92% | Emax [9]: 98% | Activity [10]: Tde | Imax [11]: 93% | Imax [12]: 68% | DC50 [13]: 0.12 nM | DC50 [14]: 0.039 nM | Imax [15]: 96% | Imax [16]: 67% | Activity [17]: Dose-Dependent Effect | GI50 [18]: 18 nM | Imax [19]: 69% | DC50 [20]: 1.1 nM | GI50 [21]: 8.1 nM | GI50 [22]: 5 nM | Activity [23]: Dose-Dependent Effect | Imax [24]: 52% | Imax [25]: 50% | GI50 [26]: 17 nM | Activity [27]: Tde | Imax [28]: 68% | GI50 [29]: 8.1 nM | Imax [30]: 84% | Emax [31]: 92% | Imax [32]: 87% | GI50 [33]: 0.4 nM | GI50 [34]: 0.2 nM | GI50 [35]: 1 nM | GI50 [36]: 31 nM

Cc1ncsc1-c1ccc(CNC(=O)[C@@H]2C[C@@H](O)CN2C(=O)[C@@H](NC(=O)C2(F)CC2)C(C)(C)C)c(OCCOc2ccc(CN3CCN(c4cc(-c5ccccc5O)nnc4N)CC3)cc2)c1
Emax [37]: > 95% | Emax [38]: > 95%
